Measured values: US20130259929A1, “USE OF A PHOSPHOPEPTIDE ABLE TO BLOCK HER3/P85 INTERACTION FOR THE TREATMENT OF HER2 HYPER-EXPRESSING TUMOURS” (priority 2010, published 2013)
Non-standard residues stand in square brackets, D forms with d. No end group written: not given here. pY = N[C@@H](Cc1ccc(OP(=O)(O)O)cc1)C(=O)O

What was measured:
MAPK phosphorylation = assay: MAPK (ERK1/2) phosphorylation (Western blot) after peptide transfection; type: cell-based, human; settings: MCF7, BT474 and MDA-MB-453 cells (FIG. 4A); Herceptin where combined
Procedure: (§1) Peptide transfection. In order to inhibit the p85 and ErbB3 interaction, MCF7, BT474 and MDA-MB-453 cell lines have been transfected using 80, 100, and 180 μg, respectively, of the following phosphopeptides:
Treatments and lmmunodecorations. […] Briefly the cells have been plated at 5×10^5 concentration in 60 mm plates. […] At the end of the treatment the cells have been lysed with RIPA buffer [150 mM NaCl, 1% NP-40, 0,5% sodium deoxycholate (DOC), 0.1% SDS, 50 mM TrisHCl (pH 8), 1 mM PMSF, 1 mM EGTA, 50 mM NaF, 50 mM Na3VO4 and protease inhibitors (Roche, Milano, IT)] in order to analyze the expression levels of phosphorylated and total ErbB-3, ErbB-2, ERK and HSP-70 proteins. In order to analyze the levels of Akt phosphorylation and expression, the cells have been lysed in NP-40 buffer [1% NP-40, 10% glycerol, 137 mM NaCl, 20 mM TrisHCl (pH 7.4), 50 mM NaF, 1 mM PMSF, 5 mM Na3VO4, protease inhibitors (Roche, Milano, IT)]. Cell lysates have been incubated on ice for 20 minutes and centrifuged at 14000 rpm for 20 minutes. RIPA buffer obtained cell extracts have been boiled for 5 minutes at 95° C., while NP40 buffer lysed samples have been boiled at 65° C. for 5 minutes. […] After thorough washing, nitrocellulose peroxidase activity has been detected by chemiluminescence (Lite-blot-Euroclone, Milano, IT)

[1] = tested on: PI3K activity measured as Akt phosphorylation; assay: Akt phosphorylation (Western blot) after peptide transfection; type: cell-based, human
Procedure: as §1
Treatments and lmmunodecorations. […] Briefly the cells have been plated at 5×10^5 concentration in 60 mm plates. […] At the end of the treatment the cells have been lysed with RIPA buffer [150 mM NaCl, 1% NP-40, 0,5% sodium deoxycholate (DOC), 0.1% SDS, 50 mM TrisHCl (pH 8), 1 mM PMSF, 1 mM EGTA, 50 mM NaF, 50 mM Na3VO4 and protease inhibitors (Roche, Milano, IT)] in order to analyze the expression levels of phosphorylated and total ErbB-3, ErbB-2, ERK and HSP-70 proteins. In order to analyze the levels of Akt phosphorylation and expression, the cells have been lysed in NP-40 buffer [1% NP-40, 10% glycerol, 137 mM NaCl, 20 mM TrisHCl (pH 7.4), 50 mM NaF, 1 mM PMSF, 5 mM Na3VO4, protease inhibitors (Roche, Milano, IT)]. Cell lysates have been incubated on ice for 20 minutes and centrifuged at 14000 rpm for 20 minutes. RIPA buffer obtained cell extracts have been boiled for 5 minutes at 95° C., while NP40 buffer lysed samples have been boiled at 65° C. for 5 minutes. Samples have been subjected to SDS-PAGE and transferred on nitrocellulose filters (Bio-Rad, Milan, IT). Then the filters have been incubated with interest antibodies, washed and incubated with specific secondary horse radish peroxidase (HRP) conjugated antibodies. After thorough washing, nitrocellulose peroxidase activity has been detected by chemiluminescence (Lite-blot-Euroclone, Milano, IT)

MCF7/Luc cells = assay: In vivo growth of peptide-transfected MCF7/Luc cells inoculated s.c.; set-up: species or system SCID mice; settings: s.c. inoculation of transfected MCF7 cells
Procedure: Xeno-grafts. In vivo tests have been carried out using 40 day old SCID female mice (Harlan Laboratories, Milan, IT). At day 0, animals have been totally anesthetized with intramuscular injection of 400 μg/animal (average weight 25 g) of Zoletil (Virbac) containing 0.12% Xylor (Xylazine), and transplanted subcutaneously (s.c.), in intrascapular mouse region with pellet of […] (1.7 mg/sustained release pellet over 60 days, Innovative Research of America, Sarasota, Fla.). On the next day, 5×10^6 proliferating and scr and 1257 peptide previously transfected, as above described, MCF7 or BT474 cells, have been re-suspended in 0.1 ml of Matrigel (BD Biosciences) and subcutaneously inoculated in each mouse. […] Tumour growth has been monitored two times weekly using calibration along two orthogonal axes: length (L) and […]. The tumour volume (V) has been calculated using the formula V=L*(W2)/2. All the procedures relating to animals and treatment thereof have been carried out according institutional guidelines.
Generation of mammary tumour luminescent cells. Mammary tumour MCF7 cell lines stably transfected using pGL4.51 (luc2/CMV/Neo) expression vector, produced by Promega (Me, IT), have been transfected using scr or 1257 phosphopeptide ([…]×5×10^4 cells/mouse) and after 30 h subcutaneously inoculated in SCID mice (5×10^6 cells/mouse) in 200 μl (1:1 Matrigel: cell suspension in serum free medium). Mice have been in vivo imaged 20′ after inoculation and once weekly over 11 weeks. The animals have been anesthetized, as above reported, and subjected to intraperitoneal injection with 200 μl of luciferin (Caliper, Mi, IT); 10′ after incubation photon emission has been analyzed at 3′ minute exposure using Xenogen Ivis Lumina 2 machine. Growth of these cells has been monitored as reported in xenografts section.
Then it has been verified whether 1257 phosphopeptide was effective also in vivo. To this purpose immunocompromised SCID mice have been used. In the presence of oestrogen tablets, 5×10^6 control cells transfected with scr peptide or transfected with 1257 peptide have been injected subcutaneously between mouse scapulae. In order to verify the viability of phosphopeptide transfected cells in animals we have generated a stable luciferase gene expressing MCF7 cell line (MCF7/Luc).

[2] = target: T1, HER3 binding to GST-N-SH2p85 fusion protein (Homo sapiens, UniProt P27986); assay: GST pull-down; settings: lysates of BT474, MCF7 and MDA-MB-453 cells, in vitro (FIG. 2A, FIG. 3)
T1 construct: containing SH2 domains in N-terminal portion of p85 sub-unit
T1 sequence (P27986 333-428 limits assumed): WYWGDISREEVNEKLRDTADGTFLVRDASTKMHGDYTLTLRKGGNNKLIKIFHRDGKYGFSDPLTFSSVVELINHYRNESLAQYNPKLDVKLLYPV
Procedure: GST pull-down. MCF-7, BT474 and MDA-MB-453 cell lines have been washed 2 times with cold PBS and extracted with lysis buffer [(50 mM Tris HCl (pH 7.4), 250 mM NaCl, 0,1% Triton X-100, 5 mM EDTA, 50 mM NaF, 1 mM PMSF, 5 mM Na3VO4 and 50 mmol/L of protease inhibitors (Roche, Milano, IT)]. After 20 minute ice-cold incubation, the lysates have been clarified by centrifugation at 14000 rpm for 20 minutes. The cellular extracts (1 mg sample) have been incubated for 4 hours at 4° C. in the presence of GST bound gluthatione-agarose beads or GST-p85 fusion protein (kindly supplied by doctor S. Giordano), in the presence or absence of 1257 phosphopeptide or scr peptide used as control. Then the interaction complexes have been washed six times with lysis buffer and subsequently beads eluted using Laemli Buffer 2× [(140 mM SDS, 432 mM Glycerol, 1.6 mM Bromophenol blue, 120 mM Tris HCl (pH 6.8), 8% β-mercaptoethanol)]. The proteins have been separated using 8% SDS-PAGE and transferred on nitrocellulose filter. The filter has been then immunodecorated with anti ErbB3 antibody.
As in FIG. 2A is apparent that 1257 phosphopeptide effectively in vitro binds p85 sub-unit thus inhibiting HER3 receptor binding.

p85 = p85 (Homo sapiens, UniProt P27986); settings: binding to p85; cited from earlier work
p85, sequence (P27986 whole entry): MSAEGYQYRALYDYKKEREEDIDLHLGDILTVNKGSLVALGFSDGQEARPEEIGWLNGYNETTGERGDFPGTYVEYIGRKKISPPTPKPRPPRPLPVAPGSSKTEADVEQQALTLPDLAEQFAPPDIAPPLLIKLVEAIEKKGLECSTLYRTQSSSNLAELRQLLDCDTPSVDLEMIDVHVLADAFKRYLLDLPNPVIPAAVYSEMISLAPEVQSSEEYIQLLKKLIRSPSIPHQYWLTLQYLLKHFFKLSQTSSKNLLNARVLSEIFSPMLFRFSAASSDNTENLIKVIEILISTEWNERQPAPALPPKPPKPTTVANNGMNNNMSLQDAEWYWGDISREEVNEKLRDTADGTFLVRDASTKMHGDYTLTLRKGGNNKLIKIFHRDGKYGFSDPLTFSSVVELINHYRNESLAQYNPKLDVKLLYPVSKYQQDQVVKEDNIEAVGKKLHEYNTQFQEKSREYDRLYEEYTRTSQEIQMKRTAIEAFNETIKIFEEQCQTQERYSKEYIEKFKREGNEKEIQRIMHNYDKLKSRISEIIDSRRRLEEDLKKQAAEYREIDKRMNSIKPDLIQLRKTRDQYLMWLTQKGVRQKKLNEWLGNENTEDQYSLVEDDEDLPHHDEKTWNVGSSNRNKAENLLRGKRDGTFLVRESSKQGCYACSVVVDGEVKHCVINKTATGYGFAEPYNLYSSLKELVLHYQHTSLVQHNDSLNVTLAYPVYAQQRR

Substance	MAPK phosphorylation (MAPK phosphorylation)	phosphorylation of Akt ([1]; MCF7, BT474 and MDA-MB-453 cells (FIG. 4A), Herceptin where combined)	time after inoculation at which tumours were calibratable (MCF7/Luc cells)	tumour take (MCF7/Luc cells; SCID mice) [%]	inhibition of HER3 and p85 SH2 domain binding [2]	inhibition of Akt phosphorylation ([1]; MCF7 cells, 48 hr after Lipofectamine transfection (FIG. 3))	association constant (Ka) (p85)	inhibition of PI3K activity measured as inhibition level of Akt phosphorylation ([1]; MCF7 cells, peptide transfection at different doses (FIG. 12))
PYQMRpYNADTDGERTTEP (PYQMR[pY]NADTDGERTTEP) [scr phosphopeptide, scramble (scr), i.e. not specific, phosphopeptide used as control, reference compound]	does not result in any effect	does not result in any effect	three	100	the binding is as efficient as in the absence of peptide			
not phosphorylated 1257 peptide: Not phosphorylated 1257 peptide used as further negative control (RDGGGPGGDYAAMGACPA; not fully specified) [reference compound]					does not inhibit p85 and ErbB-3 binding	unable to inhibit Akt phosphorylation		
PTAGTTPDEDpYEYMNRQR (PTAGTTPDED[pY]EYMNRQR; listed as Homo sapiens) [1241 phosphopeptide, second HER3-derived phosphopeptide used for preliminary experiments, reference compound]							824	not suitable to remarkably inhibit PI3K activity
